For one assay, the target named is Substance-P receptor (Homo sapiens, UniProt P25103). In kind it is cell membranes, CHO, Membrane. The settings on record: cho. Note: in other assays of this panel Not Active means under 50% inhibition at 10 µM.
A short description of assay [1]: DRUGMATRIX: Imidazoline I2, Central radioligand binding (ligand: [3H] Idazoxan). The class given is cell membranes, Rattus norvegicus, Wistar, Cerebral cortex, Membrane. The settings on record: Not Active = under 50% inhibition at 10 µM.
The target of the next assay is Melanocortin receptor 3 (Homo sapiens, UniProt P41968). In kind it is cell membranes, HEK293, Membrane. The settings on record: hek293. Note: in other assays of this panel Not Active means under 50% inhibition at 10 µM.
Assay [2] addresses T1, Neuropeptide Y receptor type 1 (Homo sapiens, UniProt P25929).
T1 sequence (P25929 whole entry): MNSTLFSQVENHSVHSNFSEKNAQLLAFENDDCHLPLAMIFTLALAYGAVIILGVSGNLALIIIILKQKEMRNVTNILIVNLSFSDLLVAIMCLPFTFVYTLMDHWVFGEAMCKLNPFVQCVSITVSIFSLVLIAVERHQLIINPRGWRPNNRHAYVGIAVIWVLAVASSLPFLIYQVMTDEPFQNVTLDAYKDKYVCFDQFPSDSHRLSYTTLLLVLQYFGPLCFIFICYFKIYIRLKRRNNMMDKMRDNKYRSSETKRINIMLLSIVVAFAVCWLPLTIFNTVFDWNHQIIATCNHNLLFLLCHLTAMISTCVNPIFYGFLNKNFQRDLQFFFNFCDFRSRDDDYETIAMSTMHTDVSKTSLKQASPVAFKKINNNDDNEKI
In kind it is cell membranes, Membrane. Conditions: sk-n-mc.

The target of another assay is Nitric oxide synthase 1 (Rattus norvegicus, UniProt P29476). In kind it is tissue-based, Cerebellum. Note: in other assays of this panel Not Active means under 50% inhibition at 10 µM.
For a further assay, the target named is T2, Interstitial collagenase (Homo sapiens, UniProt P03956).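 Note: MMP-1 enzyme inhibition assay using a peptide substrate; in other assays of this panel Not Active means under 50% inhibition at 10 µM.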
T2 sequence (P03956 whole entry): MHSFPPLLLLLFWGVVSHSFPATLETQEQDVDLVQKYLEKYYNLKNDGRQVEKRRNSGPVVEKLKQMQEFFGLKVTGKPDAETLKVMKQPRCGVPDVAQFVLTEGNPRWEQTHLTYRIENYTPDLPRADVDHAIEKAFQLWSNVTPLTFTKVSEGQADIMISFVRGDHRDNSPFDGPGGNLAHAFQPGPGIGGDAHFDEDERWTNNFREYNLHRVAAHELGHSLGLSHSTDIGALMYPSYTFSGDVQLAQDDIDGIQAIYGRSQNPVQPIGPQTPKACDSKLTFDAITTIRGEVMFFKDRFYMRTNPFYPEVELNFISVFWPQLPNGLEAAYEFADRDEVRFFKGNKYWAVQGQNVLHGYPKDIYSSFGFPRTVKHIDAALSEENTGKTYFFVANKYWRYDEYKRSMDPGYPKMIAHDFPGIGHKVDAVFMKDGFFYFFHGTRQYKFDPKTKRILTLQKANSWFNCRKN
Briefly: biochemical. In kind it is tissue-based, Rheumatoid synovial fibroblasts.

Sequence of Nitric oxide synthase 1 (P29476 whole entry): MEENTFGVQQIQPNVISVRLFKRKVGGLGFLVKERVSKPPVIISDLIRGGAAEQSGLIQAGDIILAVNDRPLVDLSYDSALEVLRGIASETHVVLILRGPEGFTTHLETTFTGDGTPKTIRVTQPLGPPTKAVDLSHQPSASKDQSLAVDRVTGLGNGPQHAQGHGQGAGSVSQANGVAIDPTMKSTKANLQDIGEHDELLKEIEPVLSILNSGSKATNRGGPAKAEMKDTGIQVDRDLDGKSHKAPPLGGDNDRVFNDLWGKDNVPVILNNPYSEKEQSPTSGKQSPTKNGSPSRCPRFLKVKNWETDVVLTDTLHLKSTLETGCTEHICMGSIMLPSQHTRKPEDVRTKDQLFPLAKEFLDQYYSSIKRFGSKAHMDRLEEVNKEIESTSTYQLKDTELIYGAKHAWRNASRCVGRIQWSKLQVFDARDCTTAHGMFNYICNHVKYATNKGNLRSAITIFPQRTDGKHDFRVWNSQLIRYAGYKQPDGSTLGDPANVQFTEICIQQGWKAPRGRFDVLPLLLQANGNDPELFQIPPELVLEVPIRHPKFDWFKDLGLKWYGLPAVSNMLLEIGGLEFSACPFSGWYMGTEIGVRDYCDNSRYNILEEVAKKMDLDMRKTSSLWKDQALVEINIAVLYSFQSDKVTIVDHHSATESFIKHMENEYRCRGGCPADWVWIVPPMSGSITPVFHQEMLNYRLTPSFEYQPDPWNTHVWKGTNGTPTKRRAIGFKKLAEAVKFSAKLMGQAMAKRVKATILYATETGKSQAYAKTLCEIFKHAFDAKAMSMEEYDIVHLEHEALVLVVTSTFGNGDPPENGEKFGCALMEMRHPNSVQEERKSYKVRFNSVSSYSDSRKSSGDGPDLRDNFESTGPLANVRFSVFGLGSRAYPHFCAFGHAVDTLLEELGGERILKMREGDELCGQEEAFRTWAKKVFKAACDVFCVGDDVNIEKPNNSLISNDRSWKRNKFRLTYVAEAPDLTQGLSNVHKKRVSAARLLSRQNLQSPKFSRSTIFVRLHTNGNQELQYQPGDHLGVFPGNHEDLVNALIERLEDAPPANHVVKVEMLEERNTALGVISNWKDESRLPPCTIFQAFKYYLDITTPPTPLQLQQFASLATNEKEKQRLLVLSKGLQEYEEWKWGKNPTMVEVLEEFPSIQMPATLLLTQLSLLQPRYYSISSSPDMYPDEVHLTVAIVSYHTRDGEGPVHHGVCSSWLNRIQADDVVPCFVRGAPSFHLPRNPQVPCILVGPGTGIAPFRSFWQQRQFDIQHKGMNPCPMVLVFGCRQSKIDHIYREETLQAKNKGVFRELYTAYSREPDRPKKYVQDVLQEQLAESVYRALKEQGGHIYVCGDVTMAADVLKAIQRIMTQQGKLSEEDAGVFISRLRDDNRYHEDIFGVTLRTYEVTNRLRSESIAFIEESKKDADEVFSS
Sequence of Substance-P receptor (P25103 whole entry): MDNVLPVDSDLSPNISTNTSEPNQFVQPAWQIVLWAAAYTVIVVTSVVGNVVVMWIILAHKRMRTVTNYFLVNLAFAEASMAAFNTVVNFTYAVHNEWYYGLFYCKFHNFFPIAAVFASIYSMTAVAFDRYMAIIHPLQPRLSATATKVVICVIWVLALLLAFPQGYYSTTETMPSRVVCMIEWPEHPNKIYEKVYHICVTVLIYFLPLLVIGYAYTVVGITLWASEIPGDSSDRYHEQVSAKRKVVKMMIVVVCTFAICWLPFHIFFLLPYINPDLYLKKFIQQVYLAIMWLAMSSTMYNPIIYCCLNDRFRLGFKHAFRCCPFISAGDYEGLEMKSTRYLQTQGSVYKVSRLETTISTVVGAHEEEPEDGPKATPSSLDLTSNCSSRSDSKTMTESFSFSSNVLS
Sequence of Melanocortin receptor 3 (P41968 whole entry): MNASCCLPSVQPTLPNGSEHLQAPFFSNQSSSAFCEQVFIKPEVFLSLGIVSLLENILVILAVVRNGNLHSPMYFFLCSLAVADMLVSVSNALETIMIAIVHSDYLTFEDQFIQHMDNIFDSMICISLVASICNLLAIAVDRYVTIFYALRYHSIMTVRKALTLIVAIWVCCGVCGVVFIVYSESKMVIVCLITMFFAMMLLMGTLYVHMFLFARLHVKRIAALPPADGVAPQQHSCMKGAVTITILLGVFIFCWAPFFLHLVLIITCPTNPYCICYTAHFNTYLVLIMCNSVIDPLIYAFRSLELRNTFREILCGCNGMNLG

For orientation: IC50 means the point on the concentration scale where inhibition reaches its midpoint. The Ki is the dissociation constant of the complex between target and ligand, obtained from inhibition or displacement. For the compound `CSc1ccc(/C=C2/C(C)=C(CC(=O)O)c3cc(F)ccc32)cc1` [SULINDAC SULFIDE], the IC50 result (against Substance-P receptor; in assay [1]; against Melanocortin receptor 3; in assay [2]; against Nitric oxide synthase 1; at Interstitial collagenase) was “Not Active” throughout. Also, the Ki result in assay [1] is “Not Active”.
For `Nc1c2c(nc3ccccc13)CCCC2` [TACRINE], the 50% inhibitory concentration (IC50) entry (against Substance-P receptor; in assay [1]; against Melanocortin receptor 3; in assay [2]; on Nitric oxide synthase 1; on Interstitial collagenase) was “Not Active” each time. In assay [1], the Ki result is listed as “Not Active”.
`CC(C)N1CCN(c2ccc(OCC3COC(Cn4cncn4)(c4ccc(Cl)cc4Cl)O3)cc2)CC1` (configuration not stated) [TERCONAZOLE]: the IC50 result against Substance-P receptor was “Not Active”; in assay [1] (read-out: IC50), 2230 nM; against Melanocortin receptor 3, “Not Active”; in assay [2] it was “Not Active”; against Nitric oxide synthase 1, “Not Active”; at Interstitial collagenase, “Not Active”. The inhibition constant Ki in assay [1] (read-out: Ki) is 1480 nM.
Turning to `Nc1nc2nc[nH]c2c(=S)[nH]1` [THIOGUANINE], the half-maximal inhibitory concentration (IC50) entry (against Substance-P receptor; in assay [1]; against Melanocortin receptor 3; in assay [2]; against Nitric oxide synthase 1; on Interstitial collagenase) was “Not Active” throughout. The Ki entry in assay [1] is “Not Active”.
On to `Cc1cccc(N(C)C(=S)Oc2ccc3ccccc3c2)c1` [TOLNAFTATE], for which the 50% inhibitory concentration (IC50) entry (on Substance-P receptor; in assay [1]; against Melanocortin receptor 3; in assay [2]; against Nitric oxide synthase 1; on Interstitial collagenase) was “Not Active” throughout. Further, the Ki result in assay [1] is reported as “Not Active”.
As for `NC[C@H]1CC[C@H](C(=O)O)CC1` [TRANEXAMIC ACID], the half-maximal inhibitory concentration (IC50) result (against Substance-P receptor; in assay [1]; at Melanocortin receptor 3; in assay [2]; on Nitric oxide synthase 1; against Interstitial collagenase) was “Not Active” each time. In addition, in assay [1], the Ki entry is “Not Active”.
`CC1(C)O[C@@H]2C[C@H]3[C@@H]4CCC5=CC(=O)C=C[C@]5(C)[C@@]4(F)[C@@H](O)C[C@]3(C)[C@]2(C(=O)CO)O1` [TRIAMCINOLONE ACETONIDE]: the 50% inhibitory concentration (IC50) result (on Substance-P receptor; in assay [1]; at Melanocortin receptor 3; in assay [2]; against Nitric oxide synthase 1; against Interstitial collagenase) was “Not Active” throughout. In addition, in assay [1], the Ki entry was “Not Active”.
As for `NS(=O)(=O)c1cc2c(cc1Cl)NC(C(Cl)Cl)NS2(=O)=O` (configuration not stated) [TRICHLORMETHIAZIDE], the half-inhibitory concentration (IC50) result (against Substance-P receptor; in assay [1]; on Melanocortin receptor 3; in assay [2]; at Nitric oxide synthase 1; on Interstitial collagenase) was “Not Active” throughout. The Ki result in assay [1] is reported as “Not Active”.
Regarding `Cc1c(C)c2c(c(C)c1O)CCC(C)(COc1ccc(CC3SC(=O)NC3=O)cc1)O2` (configuration not stated) [TROGLITAZONE], the half-maximal inhibitory concentration (IC50) result (at Substance-P receptor; in assay [1]; against Melanocortin receptor 3; in assay [2]; against Nitric oxide synthase 1; against Interstitial collagenase) was “Not Active” each time. For the same compound, in assay [1], the Ki result is reported as “Not Active”.
As for `N[C@@H]1[C@H]2CN(c3nc4c(cc3F)c(=O)c(C(=O)O)cn4-c3ccc(F)cc3F)C[C@@H]12` [TROVAFLOXACIN], the IC50 entry (against Substance-P receptor; in assay [1]; against Melanocortin receptor 3; in assay [2]; against Nitric oxide synthase 1; on Interstitial collagenase) was “Not Active” throughout. The Ki entry in assay [1] is listed as “Not Active”.
On to `N#CC(C#N)=Cc1ccc(O)c(O)c1` [TYRPHOSTIN 23], for which the IC50 entry (at Substance-P receptor; in assay [1]; against Melanocortin receptor 3; in assay [2]; at Nitric oxide synthase 1; on Interstitial collagenase) was “Not Active” in each case. Moreover, the Ki entry in assay [1] is “Not Active”.
